Measurements published in patent US5153194A, “Thienocycloheptapyridazine compounds and their pharmaceutical use” (Yoshitomi Pharmaceutical Industries, Ltd., priority 1988, dated 1992).

Legend:
[1] = test system: tonic convulsion induced by (+) bicuculline; test: Anti-bicuculline action (bicuculline-induced tonic convulsion); assay type: in vivo, mouse (male ddY); conditions: Mus musculus; oral, 1 hour before (+) bicuculline 0.6 mg/kg i.v.; tonic convulsion within 5 minutes
Procedure: The anti-bicuculline action test was carried out in accordance with the method described in Life Science, vol. 21, 1779 (1977).
Male ddY mice weighing 20-28 g, 7-14 animals per group, were used. One hour after the oral administration of the test compounds, (+) bicuculline was intravenously administered at the dosage of 0.6 mg/kg, and 50% effective concentration (ED50) was estimated by examining whether tonic convulsion within 5 minutes was caused or not.

[2] = target: benzodiazepine (BZP) receptors; test: Displacement ability for benzodiazepine (displacement of tritiated diazepam); assay type: binding, rat (male Wistar; conditions: displacement of tritiated diazepam (2 nM), rat cerebral cortex synaptosomes, 0° C., 20 minutes, pH 7.4; read-out: Affinity to BZP Receptors, Ki
Procedure: The experiment for specific affinity to benzodiazepine receptors was carried out in accordance with the method described in Life Science, vol. 20, 2101 (1977).
The crude cynaptosome fraction was isolated from the cerebral cortex of male Wistar rats aged 9-10 weeks, and was suspended in 50 mM Tris-hydrochloric acid buffer solution (pH 7.4) containing 120 mM sodium chloride and 5 mM potassium chloride. These suspensions were used for the experiment.
The test compounds in several different concentrations and tritiated diazepam (in final concentration of 2 nM) were added to the synaptosome suspensions, and the mixtures were incubated at 0° C. for 20 minutes. These suspensions were filtered with Whatman GF/B glassfiber filters. After the filters were washed with the above-mentioned buffer solution, the radioactivity left on the filters was measured with the use of a liquid scintillation counter.
Specific binding was determined by subtracting binding in the presence of 10^-6 M unlabelled diazepam from total binding.
According to the foregoing experimental method, the binding force to benzodiazepine receptors of the compound of the present invention is evaluated from its displacement ability for tritiated diazepam at its binding site, which is represented by Ki value (nM).

[3] = test system: amnesia-induced mice (electroconvulsive shock); test: Action on experimental amnesia (ECS-induced amnesia, step-through passive avoidance); assay type: in vivo, mouse (male ddY); conditions: 2.5 mg/kg (i.p.) or more, 30 minutes before acquisition trial; retention test 24 hours after
Procedure: Twenty male ddY mice were used per group to investigate the action of the test compounds on learning and memory ability of amnesia-induced mice by observing a step-through passive avoidance reflex. Amnesia-induced animals were prepared by applying electroconvulsive shock (ECS) soon after the acquisition trial and the retention test was carried out 24 hours after the acquisition trial. Test compounds were administered intraperitoneally (i.p.) 30 minutes before the acquisition trial.

[4] = test system: ddY mice; test: Acute toxicity; assay type: in vivo, mouse (male ddY); conditions: 5 days
Description: Five male ddY mice were used per group.

| Structure (SMILES) | ED50 [1] [mg/kg] | Ki [2] [nM] | latency time in the trial of the retention test [3] | survival, acute toxicity, intraperitoneal ([4]; 300 mg/kg i.p., five mice) | survival, acute toxicity, oral ([4]; 1000 mg/kg oral) |
| --- | --- | --- | --- | --- | --- |
| Cc1cc2c(s1)CCCc1cc(=O)n(-c3ccc(Cl)cc3)nc1-2 [Example 5, 2-(4-chlorophenyl)-2,5,6,7-tetrahydro-9-methyl-3H-thieno[2',3':6,7]cyclohepta[1,2-c]pyridazin-3-one] | 9.8 | – | – | – | – |
| COc1ccc(N2N=C3c4cc(C)sc4CCCC3CC2=O)cc1 (stereo not shown) [Example 4, 2-(4-methoxyphenyl)-9-methyl-2,4,4a,5,6,7-hexahydro-3H-thieno[2',3':6,7]cyclohepta[1,2-c]pyridazin-3-one] | – | 1.1 | significantly prolonged the latency time | all mice survived for 5 days | survived for 5 days |
| Cc1cc2c(s1)CCCC1CC(=O)N(c3ccc(Cl)cc3)N=C21 (stereo not shown) [Example 1, 2-(4-chlorophenyl)-9-methyl-2,4,4a,5,6,7-hexahydro-3H-thieno[2',3':6,7]cyclohepta[1,2-c]pyridazin-3-one] | 8.1 | 4.8 | – | – | – |
